Reference: BindingDB's records for doi:10.1016/j.bmcl.2003.10.030 (Pfizer, 2003)

Target: Vascular endothelial growth factor receptor 1 (Homo sapiens, UniProt P17948)
Sequence (P17948 whole entry): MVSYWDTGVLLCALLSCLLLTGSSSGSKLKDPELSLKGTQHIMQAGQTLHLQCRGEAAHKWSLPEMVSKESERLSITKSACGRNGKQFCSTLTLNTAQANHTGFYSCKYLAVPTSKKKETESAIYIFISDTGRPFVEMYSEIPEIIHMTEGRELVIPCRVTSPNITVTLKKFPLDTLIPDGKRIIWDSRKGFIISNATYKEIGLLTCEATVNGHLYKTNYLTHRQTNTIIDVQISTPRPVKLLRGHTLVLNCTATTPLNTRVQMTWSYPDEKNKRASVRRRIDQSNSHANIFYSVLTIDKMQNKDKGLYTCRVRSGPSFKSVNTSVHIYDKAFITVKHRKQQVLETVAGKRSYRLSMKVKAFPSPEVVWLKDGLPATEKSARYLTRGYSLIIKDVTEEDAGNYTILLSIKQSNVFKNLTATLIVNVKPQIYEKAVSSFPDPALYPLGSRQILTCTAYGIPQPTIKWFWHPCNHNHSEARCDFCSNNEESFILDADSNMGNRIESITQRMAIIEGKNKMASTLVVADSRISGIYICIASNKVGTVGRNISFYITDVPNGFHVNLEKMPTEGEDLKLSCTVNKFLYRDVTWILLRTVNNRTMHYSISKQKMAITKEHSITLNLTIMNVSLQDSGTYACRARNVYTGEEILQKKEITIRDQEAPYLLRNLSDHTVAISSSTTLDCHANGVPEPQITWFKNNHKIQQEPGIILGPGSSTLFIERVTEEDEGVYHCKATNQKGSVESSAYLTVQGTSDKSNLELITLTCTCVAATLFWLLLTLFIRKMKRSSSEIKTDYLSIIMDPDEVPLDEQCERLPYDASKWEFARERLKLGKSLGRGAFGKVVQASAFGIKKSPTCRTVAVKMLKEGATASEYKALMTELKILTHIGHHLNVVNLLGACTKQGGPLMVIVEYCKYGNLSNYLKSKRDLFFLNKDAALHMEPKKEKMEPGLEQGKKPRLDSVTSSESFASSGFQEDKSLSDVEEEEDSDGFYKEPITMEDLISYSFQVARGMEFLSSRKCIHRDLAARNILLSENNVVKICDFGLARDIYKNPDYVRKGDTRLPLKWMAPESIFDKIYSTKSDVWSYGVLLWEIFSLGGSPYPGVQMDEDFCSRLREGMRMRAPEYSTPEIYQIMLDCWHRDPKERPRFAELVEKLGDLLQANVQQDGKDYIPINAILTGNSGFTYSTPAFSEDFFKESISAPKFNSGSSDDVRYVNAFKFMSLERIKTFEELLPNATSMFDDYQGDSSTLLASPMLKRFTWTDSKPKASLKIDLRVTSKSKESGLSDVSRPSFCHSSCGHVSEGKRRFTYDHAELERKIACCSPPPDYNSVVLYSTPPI
Experiment: ChEBML_213951
Text: Inhibitory activity against Vascular endothelial growth factor receptor
In the case of `c1csc(-c2cc3ncnc(Nc4ccc5[nH]ccc5c4)c3s2)c1` [(1H-Indol-5-yl)-(6-thiophen-2-yl-thieno[3,2-d]pyrimidin-4-yl)-amine], the IC50 is reported as 130 nM.

Target: not listed separately
Experiment: Inhibitory activity against Vascular endothelial growth factor receptor
`Cc1cc2cc(Nc3ccnc4cc(-c5ccc(CNCCO)cc5)sc34)ccc2[nH]1` [2-{4-[7-(2-Methyl-1H-indol-5-ylamino)-thieno[3,2-b]pyridin-2-yl]-benzylamino}-ethanol] gave an IC50 of 4 nM.
`Cc1cc2cc(Nc3ncnc4cc(-c5ccccc5)sc34)ccc2[nH]1` [(2-Methyl-1H-indol-5-yl)-(6-phenyl-thieno[3,2-d]pyrimidin-4-yl)-amine] gave an IC50 of 140 nM.
`NCc1ccc(-c2cc3ncnc(Nc4ccc5[nH]ccc5c4)c3s2)cc1` [[6-(4-Aminomethyl-phenyl)-thieno[3,2-d]pyrimidin-4-yl]-(1H-indol-5-yl)-amine] gave an IC50 of 18 nM.
Work on `c1ccc(-c2cc3ncnc(Nc4ccc5nn[nH]c5c4)c3s2)cc1` [(1H-Benzotriazol-5-yl)-(6-phenyl-thieno[3,2-d]pyrimidin-4-yl)-amine] yielded an IC50 of 470 nM.
Molecule `O=C(Cc1cc2ncnc(Nc3ccc4[nH]ccc4c3)c2s1)c1ccccc1` [2-[4-(1H-Indol-5-ylamino)-thieno[3,2-d]pyrimidin-6-yl]-1-((E)-phenyl)-ethenol] has an IC50 of 2210 nM.
For `CN(CCO)Cc1ccc(-c2cc3nccc(Nc4ccc5[nH]ccc5c4)c3s2)cc1` [2-({4-[7-(1H-Indol-5-ylamino)-thieno[3,2-b]pyridin-2-yl]-benzyl}-methyl-amino)-ethanol], the IC50 was 4 nM.
`CNc1ccc(Nc2ncnc3cc(-c4ccccc4)sc23)cc1` [N-Methyl-N'-(6-phenyl-thieno[3,2-d]pyrimidin-4-yl)-benzene-1,4-diamine] showed an IC50 of 190 nM.
Molecule `Nc1ncnc2cc(-c3ccccc3)sc12` [6-Phenyl-thieno[3,2-d]pyrimidin-4-ylamine] has an IC50 greater than 1250 nM.
In the case of `CC(=O)NCCNCc1ccc(-c2cc3ncnc(Nc4ccc5[nH]ccc5c4)c3s2)cc1` [N-(2-{4-[4-(1H-Indol-5-ylamino)-thieno[3,2-d]pyrimidin-6-yl]-benzylamino}-ethyl)-acetamide], the IC50 is reported as 4 nM.
In the case of `CC(C)(CO)NCc1ccc(-c2cc3ncnc(Nc4ccc5[nH]ccc5c4)c3s2)cc1` [2-{4-[4-(1H-Indol-5-ylamino)-thieno[3,2-d]pyrimidin-6-yl]-benzylamino}-2-methyl-propan-1-ol], the IC50 is reported as 25 nM.
With `c1nc(Nc2ccc3[nH]ccc3c2)c2sccc2n1` [(1H-Indol-5-yl)-thieno[3,2-d]pyrimidin-4-yl-amine] the IC50 was 1410 nM.
`Cc1c[nH]c2ccc(Nc3ncnc4cc(-c5ccccc5)sc34)cc12` [(3-Methyl-1H-indol-5-yl)-(6-phenyl-thieno[3,2-d]pyrimidin-4-yl)-amine] gave an IC50 of 290 nM.
In the case of `c1ccc(CNc2ncnc3cc(-c4ccccc4)sc23)cc1` [Benzyl-(6-phenyl-thieno[3,2-d]pyrimidin-4-yl)-amine], the IC50 is reported as greater than 2500 nM.
In the case of `OCc1ccc(-c2cc3ncnc(Nc4ccc5[nH]ccc5c4)c3s2)cc1` [{4-[4-(1H-Indol-5-ylamino)-thieno[3,2-d]pyrimidin-6-yl]-phenyl}-methanol], the IC50 is reported as 56 nM.
Work on `Cc1cc2cc(Nc3ccnc4cc(-c5ccc(CN(C)CCO)cc5)sc34)ccc2[nH]1` [2-(Methyl-{4-[7-(2-methyl-1H-indol-5-ylamino)-thieno[3,2-b]pyridin-2-yl]-benzyl}-amino)-ethanol] yielded an IC50 of 3 nM.
Molecule `Cc1cc2cc(Nc3ccnc4cc(-c5ccc(CN6CCOCC6)cc5)sc34)ccc2[nH]1` [(2-Methyl-1H-indol-5-yl)-[2-(4-morpholin-4-ylmethyl-phenyl)-thieno[3,2-b]pyridin-7-yl]-amine] has an IC50 of 5 nM.
In the case of `NC(=O)c1ccc(Nc2ncnc3cc(-c4ccccc4)sc23)cc1` [4-(6-Phenyl-thieno[3,2-d]pyrimidin-4-ylamino)-benzamide], the IC50 is reported as 250 nM.
With `CC(=O)NCCNCc1ccc(-c2cc3nccc(Nc4ccc5[nH]ccc5c4)c3s2)cc1` [N-(2-{4-[7-(1H-Indol-5-ylamino)-thieno[3,2-b]pyridin-2-yl]-benzylamino}-ethyl)-acetamide] the IC50 was 24 nM.
`OCCCNCc1ccc(-c2cc3nccc(Nc4ccc5[nH]ccc5c4)c3s2)cc1` [3-{4-[7-(1H-Indol-5-ylamino)-thieno[3,2-b]pyridin-2-yl]-benzylamino}-propan-1-ol] showed an IC50 of 4 nM.
With `c1csc(-c2cc3nccc(Nc4ccc5[nH]ccc5c4)c3s2)c1` [(1H-Indol-5-yl)-(2-thiophen-2-yl-thieno[3,2-b]pyridin-7-yl)-amine] the IC50 was 132 nM.
`c1ccc(NCCN(c2cc3ncnc(Nc4ccc5[nH]ccc5c4)c3s2)n2cccc2)cc1` [N*4*-(1H-Indol-5-yl)-N*6*-(2-phenylamino-ethyl)-N*6*-pyrrol-1-yl-thieno[3,2-d]pyrimidine-4,6-diamine] gave an IC50 of 43 nM.
For `c1ccc(Nc2ccc(Nc3ncnc4cc(-c5ccccc5)sc34)cc2)cc1` [N-Phenyl-N'-(6-phenyl-thieno[3,2-d]pyrimidin-4-yl)-benzene-1,4-diamine], the IC50 was 390 nM.
With `OCCNCc1ccc(-c2cc3nccc(Nc4ccc5[nH]ccc5c4)c3s2)cc1` [2-{4-[7-(1H-Indol-5-ylamino)-thieno[3,2-b]pyridin-2-yl]-benzylamino}-ethanol] the IC50 was 6 nM.
`CCCNC(=O)c1cc2ncnc(Nc3ccc4[nH]ccc4c3)c2s1` [4-(1H-Indol-5-ylamino)-thieno[3,2-d]pyrimidine-6-carboxylic acid propylamide] gave an IC50 of 2000 nM.
`Cn1ccc2cc(Nc3ncnc4cc(-c5ccccc5)sc34)ccc21` [(1-Methyl-1H-indol-5-yl)-(6-phenyl-thieno[3,2-d]pyrimidin-4-yl)-amine] gave an IC50 greater than 2500 nM.
Molecule `Cc1cc2cc(Nc3ccnc4cc(-c5ccc(CNCCOCCO)cc5)sc34)ccc2[nH]1` [2-(2-{4-[7-(2-Methyl-1H-indol-5-ylamino)-thieno[3,2-b]pyridin-2-yl]-benzylamino}-ethoxy)-ethanol] has an IC50 of 5 nM.
Molecule `Cc1cc2cc(Nc3ccnc4cc(-c5ccc(CNCCCO)cc5)sc34)ccc2[nH]1` [3-{4-[7-(2-Methyl-1H-indol-5-ylamino)-thieno[3,2-b]pyridin-2-yl]-benzylamino}-propan-1-ol] has an IC50 of 5 nM.
`Brc1cc2ncnc(Nc3ccc4[nH]ccc4c3)c2s1` [(6-Bromo-thieno[3,2-d]pyrimidin-4-yl)-(1H-indol-5-yl)-amine] showed an IC50 of 220 nM.
`CN(C)c1ccc(Nc2ncnc3cc(-c4ccccc4)sc23)cc1` [N,N-Dimethyl-N'-(6-phenyl-thieno[3,2-d]pyrimidin-4-yl)-benzene-1,4-diamine] gave an IC50 of 500 nM.
`c1cc(Nc2ccc3[nH]ccc3c2)c2sc(-c3ccc(CN4CCOCC4)cc3)cc2n1` [(1H-Indol-5-yl)-[2-(4-morpholin-4-ylmethyl-phenyl)-thieno[3,2-b]pyridin-7-yl]-amine] gave an IC50 of 5 nM.
In the case of `O=C(c1ccccc1)c1cc2ncnc(Nc3ccc4[nH]ccc4c3)c2s1` [[4-(1H-Indol-5-ylamino)-thieno[3,2-d]pyrimidin-6-yl]-phenyl-methanone], the IC50 is reported as 770 nM.
Work on `c1ccc(-c2cc3ncnc(Nc4ccc5[nH]ncc5c4)c3s2)cc1` [(1H-Indazol-5-yl)-(6-phenyl-thieno[3,2-d]pyrimidin-4-yl)-amine] yielded an IC50 of 620 nM.

Target: not listed separately
Experiment: as above
Remark: another data set of the same source
`c1ccc(-c2cc3ncnc(Nc4ccc5[nH]ccc5c4)c3s2)cc1` [(1H-Indol-5-yl)-(6-phenyl-thieno[3,2-d]pyrimidin-4-yl)-amine] showed an IC50 of 48 nM.
For `c1ccc(CCCN(c2cc3ncnc(Nc4ccc5[nH]ccc5c4)c3s2)n2ccnc2)cc1` [N*6*-Imidazol-1-yl-N*4*-(1H-indol-5-yl)-N*6*-(3-phenyl-propyl)-thieno[3,2-d]pyrimidine-4,6-diamine], the IC50 was 4 nM.
